Assay results as given in PubChem BioAssay AID248 (DTP/NCI, 2004).
“And” between values parts separate entries of the source, which are not always exact repeats. Equal values may be shown once. Inconclusive results and toxic doses are left out. No stated cut-off is given here; in the data, active means T/C of 150% or more; inactive means T/C below 125%.

Tested on: L1210 leukemia ip in BDF1 mice, survival T/C
Test: NCI In Vivo Anticancer Drug Screen. Data for tumor model L1210 Leukemia (intraperitoneal) in B6D2F1 (BDF1) mice
Details: endpoint: mean survival time, higher = longer survival
Method in brief: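 Transplanted-tumor mice were given test agent; controls received vehicle only. Survival readings from the two groups were divided (treated over control).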

[1] = dose: 100.0 mg/kg/injection, schedule: Q04DX003 (ip), vehicle: Klucel (hydroxypropylcellulose) (HPC)
[2] = dose: 200.0 mg/kg/injection, schedule: Q04DX003 (ip), vehicle: Klucel (hydroxypropylcellulose) (HPC)
[3] = dose: 100.0 mg/kg/injection, schedule: Q01DX001 (ip), vehicle: saline
[4] = dose: 200.0 mg/kg/injection, schedule: Q01DX001 (ip), vehicle: saline
[5] = dose: 400.0 mg/kg/injection, schedule: Q01DX001 (ip), vehicle: saline
[6] = dose: 100.0 mg/kg/injection, schedule: Q01DX009 (ip), vehicle: saline with Tween-80
[7] = dose: 100.0 mg/kg/injection, schedule: Q04DX003 (ip), vehicle: saline with Tween-80
[8] = dose: 200.0 mg/kg/injection, schedule: Q01DX009 (ip), vehicle: saline with Tween-80
[9] = dose: 200.0 mg/kg/injection, schedule: Q04DX003 (ip), vehicle: saline with Tween-80
[10] = dose: 400.0 mg/kg/injection, schedule: Q01DX009 (ip), vehicle: saline with Tween-80
[11] = dose: 400.0 mg/kg/injection, schedule: Q04DX003 (ip), vehicle: saline with Tween-80
[12] = dose: 25.0 mg/kg/injection, schedule: Q01DX009 (ip), vehicle: Klucel (hydroxypropylcellulose) (HPC)
[13] = dose: 50.0 mg/kg/injection, schedule: Q01DX009 (ip), vehicle: Klucel (hydroxypropylcellulose) (HPC)

Measured: T/C

O=c1[nH]ccc2n[nH]nc12
inactive: dose: 100.0 mg/kg/injection, schedule: Q01DX001 (ip), vehicle: other 104 % of control | dose: 100.0 mg/kg/injection, schedule: Q04DX003 (ip), vehicle: other 96 % of control | dose: 200.0 mg/kg/injection, schedule: Q01DX001 (ip), vehicle: other 101 % of control | dose: 200.0 mg/kg/injection, schedule: Q04DX003 (ip), vehicle: other 105 % of control | dose: 400.0 mg/kg/injection, schedule: Q01DX001 (ip), vehicle: other 104 % of control | dose: 400.0 mg/kg/injection, schedule: Q04DX003 (ip), vehicle: other 102 % of control

COc1ccc(NC(=O)Oc2cc(C)cc(C)c2)cc1
inactive: dose: 100.0 mg/kg/injection, schedule: Q01DX009 (ip), vehicle: Klucel (hydroxypropylcellulose) (HPC) 106 % of control | [1] 100 % of control | dose: 200.0 mg/kg/injection, schedule: Q01DX009 (ip), vehicle: Klucel (hydroxypropylcellulose) (HPC) 101 % of control | [2] 97 % of control | dose: 400.0 mg/kg/injection, schedule: Q01DX009 (ip), vehicle: Klucel (hydroxypropylcellulose) (HPC) 100 % of control | dose: 400.0 mg/kg/injection, schedule: Q04DX003 (ip), vehicle: Klucel (hydroxypropylcellulose) (HPC) 92 % of control

C=CNC(=O)C(c1ccccc1)N1CCCCC1 (stereo not drawn)
inactive: dose: 100.0 mg/kg/injection, schedule: Q01DX001 (ip), vehicle: Klucel (hydroxypropylcellulose) (HPC) 102 % of control | dose: 200.0 mg/kg/injection, schedule: Q01DX001 (ip), vehicle: Klucel (hydroxypropylcellulose) (HPC) 97 % of control | dose: 400.0 mg/kg/injection, schedule: Q01DX001 (ip), vehicle: Klucel (hydroxypropylcellulose) (HPC) 103 % of control

O=CC1CC2CCC1C2 (stereo not drawn)
inactive: [3] 116 % of control | [4] 91 % of control | [5] 96 % of control

CN1CC(C)(C)C(=O)c2ccccc21
inactive: dose: 100.0 mg/kg/injection, schedule: Q04DX002 (ip), vehicle: other 95 % of control | dose: 200.0 mg/kg/injection, schedule: Q04DX002 (ip), vehicle: other 103 % of control | dose: 400.0 mg/kg/injection, schedule: Q04DX002 (ip), vehicle: other 103 % of control

COC(=O)c1ccccc1NC(=O)c1cc(C(=O)O)c(C(=O)Nc2ccccc2C(=O)OC)cc1C(=O)O
inactive: [6] 93 % of control and 107 % of control | dose: 100.0 mg/kg/injection, schedule: Q04DX002 (ip), vehicle: saline with Tween-80 100 % of control and 103 % of control | [7] 102 % of control | [8] 97 % of control and 113 % of control | dose: 200.0 mg/kg/injection, schedule: Q04DX002 (ip), vehicle: saline with Tween-80 106 % of control and 109 % of control | [9] 100 % of control | [10] 97 % of control and 92 % of control | dose: 400.0 mg/kg/injection, schedule: Q04DX002 (ip), vehicle: saline with Tween-80 96 % of control and 92 % of control | [11] 102 % of control

NC(CC(=O)N/C=N\O)C(=O)O (stereo not drawn)
inactive: dose: 50.0 mg/kg/injection, schedule: Q01DX001 (ip), vehicle: saline 98 % of control | [3] 102 % of control | [4] 104 % of control | [5] 104 % of control

CCN(CC)CC(C)(N)c1c2ccccc2nc2c1ccc1ccccc12 (stereo not drawn)
inactive: dose: 50.0 mg/kg/injection, schedule: Q01DX009 (ip), vehicle: other 101 % of control | dose: 100.0 mg/kg/injection, schedule: Q01DX009 (ip), vehicle: other 111 % of control | dose: 200.0 mg/kg/injection, schedule: Q01DX009 (ip), vehicle: other 119 % of control

c1ccc(C2C(c3ccccc3)N2C23CC4CC(CC(C4)C2)C3)cc1 (stereo not drawn)
inactive: [1] 88 % of control | [2] 94 % of control

CC(=O)Nc1cc2ccccc2[n+](C)c1
inactive: dose: 12.5 mg/kg/injection, schedule: Q04DX003 (ip), vehicle: Klucel (hydroxypropylcellulose) (HPC) 94 % of control | dose: 25.0 mg/kg/injection, schedule: Q04DX003 (ip), vehicle: Klucel (hydroxypropylcellulose) (HPC) 98 % of control | dose: 50.0 mg/kg/injection, schedule: Q04DX003 (ip), vehicle: Klucel (hydroxypropylcellulose) (HPC) 96 % of control

Cc1cc(C(=O)O)c(C)cc1SSc1cc(C)c(C(=O)O)cc1C
inactive: dose: 75.0 mg/kg/injection, schedule: Q01DX001 (ip), vehicle: carboxymethylcellulose (CMC) 94 % of control | dose: 150.0 mg/kg/injection, schedule: Q01DX001 (ip), vehicle: carboxymethylcellulose (CMC) 94 % of control | dose: 300.0 mg/kg/injection, schedule: Q01DX001 (ip), vehicle: carboxymethylcellulose (CMC) 88 % of control

O=N[O-].O=N[O-].[NH2-].[NH2-].[Pt+2]
inactive: dose: 12.5 mg/kg/injection, schedule: Q01DX009 (ip), vehicle: Klucel (hydroxypropylcellulose) (HPC) 103 % of control | [12] 106 % of control | [13] 106 % of control

O=[N+]([O-])c1ccc2nccc(Cl)c2c1
inactive: [12] 97 % of control | [13] 92 % of control | [1] 95 % of control

CCO/C(C)=C(/C(C)=O)C(=O)NC1CCCCC1
inactive: [6] 100 % of control | [7] 101 % of control | [8] 100 % of control | [9] 95 % of control | [10] 102 % of control | [11] 98 % of control

COc1ccc(CN(CCO)S(C)(=O)=O)cc1
inactive: dose: 100.0 mg/kg/injection, schedule: Q04DX003 (ip), vehicle: saline 91 % of control | dose: 200.0 mg/kg/injection, schedule: Q01DX009 (ip), vehicle: saline 96 % of control | dose: 200.0 mg/kg/injection, schedule: Q04DX003 (ip), vehicle: saline 96 % of control | dose: 400.0 mg/kg/injection, schedule: Q01DX009 (ip), vehicle: saline 88 % of control | dose: 400.0 mg/kg/injection, schedule: Q04DX003 (ip), vehicle: saline 100 % of control

O=C(NCCCl)NC1CCc2ccccc21 (stereo not drawn)
inactive: dose: 20.0 mg/kg/injection, schedule: Q04DX003 (ip), vehicle: Klucel (hydroxypropylcellulose) (HPC) 92 % of control | dose: 40.0 mg/kg/injection, schedule: Q04DX003 (ip), vehicle: Klucel (hydroxypropylcellulose) (HPC) 92 % of control | dose: 80.0 mg/kg/injection, schedule: Q04DX003 (ip), vehicle: Klucel (hydroxypropylcellulose) (HPC) 91 % of control | [1] 95 % of control | [2] 106 % of control

CN1c2cccc[c]2[Sn]([c]2ccccc2)([c]2ccccc2)[c]2ccccc21
inactive: dose: 100.0 mg/kg/injection, schedule: Q01DX001 (ip), vehicle: steriod suspending solution 94 % of control | dose: 200.0 mg/kg/injection, schedule: Q01DX001 (ip), vehicle: steriod suspending solution 94 % of control | dose: 400.0 mg/kg/injection, schedule: Q01DX001 (ip), vehicle: steriod suspending solution 100 % of control

CCOC(=O)CNC(=O)Nc1cc(OC)ccc1OC
inactive: [6] 96 % of control | [8] 95 % of control | [10] 100 % of control
